{"source": "patent US20130323231A1", "about": "“TREATMENT AND PROGNOSIS OF SOLID TUMOUR CANCERS” (ROYAL COLLEGE OF SURGEONS IN IRELAND, priority 2011, published 2013)", "key": {"[1]": {"system": "oxaliplatin resistance HCT116 cells", "test": "Calculated oxaliplatin IC50 in oxaliplatin resistant HCT116 cells", "details": "read-out: calculated IC50; HCT116 cells rendered oxaliplatin resistant by stepwise increasing oxaliplatin over 16 passages"}, "HCT116 cells": {"system": "HCT116 cells", "test": "Calculated oxaliplatin IC50 in parental HCT116 cells", "details": "read-out: calculated IC50"}}, "data": [{"compound": "O=C1[O][Pt]2([NH][C@@H]3CCCC[C@H]3[NH]2)[O]C1=O", "note": "[oxaliplatin]", "values": [{"measurement": "IC50", "setting": "[1]", "value": 5000, "unit": "nM"}, {"measurement": "IC50", "setting": "HCT116 cells", "value": 350, "unit": "nM"}]}]}
